Laboratory results reported in article PMC7876106 (Scientific Reports, 2021).

Experiments:
TERRA and TRF2 complex = test: FP inhibition assay, TRF2 GAR binding to TERRA; conditions: for IC50: FP, 10 nM peptide, 5 μM oligo; for Selectivity Ratio IC50 (Tel DNA/TERRA): ratio of FP IC50 values
Protocol: All the nucleic acids, peptides and chemicals were dissolved in buffer containing 20 mM HEPES pH7.5, 150 mM salt (KCl, NaCl, LiCl) at the stock concentration of 1 mM. For peptide and nucleic acid interactions, 25μL of each nucleic acids with a sequential twofold dilutions starting from 50 μM was added into each well of 96-well plate followed by adding 25μL of 10 nM FITC labeled TRF2 peptide. For compounds and nucleic acid interactions, 20μL of each compounds with a sequential twofold dilutions starting from 50 μM were added into each well of 96-well plate followed by adding 5μL of 20 ng/mL tRNA and 25μL of 10 nM FAM labeled nucleic acids. For inhibition assay, 5μL FITC labeled TRF2 GAR peptide (10 nM final concentration) and 10 μL oligos (5 μM final concentration) were mixed, followed by adding 5μL of each compound with a sequential twofold dilutions starting from 50 μM into each well of 384-well plate. All components were mixed thoroughly, and the plate was incubated at room temperature for 1 h before placing in an Envision Plate Reader for reading at 495/520 nm. All data curves were fitted using Prism 8.0.

[1] = system: TERRA antisense (5'-fluorescein) (RNA, single strand) CCCUAACCCUAACCCUAACCCUAA; test: fluorescence polarization; conditions: 150 mM salt (KCl, NaCl or LiCl; which not stated); 20 mM HEPES pH 7.5, room temperature, tRNA competitor; dilutions from 50 μM compound
[2] = system: TRF2 interaction with TERRA; test: RNA-ChIP assay of TRF2-TERRA interaction in LOX cells; format: cell-based; conditions: Homo sapiens, 24 h, read-out: inhibition of TRF2 interaction with TERRA relative to PP control
Protocol: Mei et al, 2020 TERRA Requires TRF2 GAR Domain […]
blot procedures. Northern blot was performed as previously described with some modifications […]
2. Briefly, 6 µg RNA was denatured in NorthernMax formaldehyde loading dye (Ambion) for 15 […]
min at 65 °C and separated by 1.2% agarose formamide gel in 1X Mops buffer (Ambion) at […]
5V/cm for 2-3 hrs. RNA samples were transferred to GeneScreen Plus blotting membranes […]
(Perkin-Elmer) with 10X SSC and UV cross-linked onto membranes at 125 mJ in UV […]
Stratalinker 2400 (Stratagene). The hybridization was performed using a 32P-labeled TERRA […]
probe in Church buffer (0.5 N Na-phosphate, pH 7.2, 7% SDS, 1 mM EDTA, 1% BSA) for […]
overnight at 50 °C. The blot was washed twice in 0.2 N Na-phosphate, 2% SDS, and 1 mM […]
EDTA at room temperature and once in 0.1 N Na-phosphate, 2% SDS, and 1 mM EDTA at […]
50 °C. Images were collected by phosphor- imager (Amersham Biosciences), and were […]
visualized with a Typhoon 9410 Imager (GE Healthcare) and quantified with ImageQuant TL […]
Genomic DNA was isolated from cells using a genomic DNA purification kit (Promega) and digested with AluI and MboI. Digested genomic DNA was purified by phenol/choloroform extraction and quantified using a Qubit 4 Fluorometer (Thermal Scientific). […] The DNA was transferred to GeneScreen Plus blotting membranes (Perkin-Elmer) and analyzed by Southern blot. […]

Which results are given for `CCc1c(C)c2cc3nc(cc4nc(cc5c(CC)c(C)c(cc1[nH]2)n5C)C(C)=C4CCC(=O)O)C(CCC(=O)O)=C3C` [NMM, N-methyl mesoporphyrin IX]?
IC50 (TERRA and TRF2 complex): 420 nM; Selectivity Ratio IC50 (Tel DNA/TERRA) (TERRA and TRF2 complex): 2.38; binding [1]: no; inhibition at 2 µM [2]: ~50%

What does the source list for `CN(C)c1ccc(Nc2c3ccc(NC(=O)CCN4CCCC4)cc3nc3cc(NC(=O)CCN4CCCC4)ccc23)cc1` [BRACO-19]?
IC50 (TERRA and TRF2 complex): 240 nM; Selectivity Ratio IC50 (Tel DNA/TERRA) (TERRA and TRF2 complex): 0.17; binding [1]: no; inhibition at 2 µM [2]: ~50%
